{
  "source": "patent US7273614B2",
  "about": "(priority 1993, dated 2007)",
  "key": {"HIV-1LAI [1]": {"test_system": "HIV-1LAI", "test": "Cell free virus infection assay (CEM CD4+ cells, reverse transcriptase readout)", "type": "cell-based", "conditions": "FIG. 1 legend", "description": "(§1) Synthetic peptides were incubated at 37° C. with either 247 TCID50 (for experiment depicted in FIG. 2), or 62 TCID50 (for experiment depicted in FIG. 3) units of HIV-1LAI virus or 25 TCID50 units of HIV-2NIHZ and CEM CD4+ cells at peptide concentrations of 0, 0.04, 0.4, 4.0, and 40 μg/ml for 7 days. The resulting reverse transcriptase (RT) activity in counts per minute was determined using the assay described, below, in Section 6.1.5. See, Reed, L. J. et al., 1938, Am. J. Hyg. 27: 493-497 for an explanation of TCID50 calculations.\n(§2) The micro-reverse transcriptase (RT) assay was adapted from Goff et al. (Goff, S. et al., 1981, J. Virol. 38:239-248) and Willey et al. (Willey, R. et al., 1988, J. Virol. 62:139-147). Supernatants from virus/cell cultures are adjusted to 1% Triton-X100. A 10 μl sample of supernatant was added to 50 μl of RT cocktail in a 96-well U-bottom microtitre plate and the samples incubated at 37° C. for 90 min. The RT cocktail contained 75 mM KCl, 2 mM dithiothreitol, 5 mM MgCl2, 5 μg/ml poly A (Pharmacia, cat. No. 27-4110-01), 0.25 units/ml oligo dT (Pharmacia, cat. No. 27-7858-01), 0.05% NP40, 50 mM Tris-HCl, pH 7.8, 0.5 μM non-radioactive dTTP, and 10 μCi/ml ^32P-dTTP (Amersham, cat. No. PB.10167). […]"}, "HIV-1LAI [2]": {"test_system": "HIV-1LAI", "conditions": "Wild et al. 1992; cited from earlier work"}, "[3]": {"target": "viral gp41 of HIV-1 (HIV-1IIIB) (HIV-1 IIIB) (UniProt P03377)", "test": "cell-based or functional assay"}, "HIV-2": {"test_system": "HIV-2", "test": "Cell fusion assay: HIV-2 mediated syncytia formation", "type": "cell-based", "conditions": "failed to block at highest concentration; FIG. 5", "quoted_text": "Approximately 7×10^4 Molt cells were incubated with 1×10^4 CEM cells chronically infected with the HIV-1LAI virus in 96-well plates (one-half area cluster plates; Costar, Cambridge, Mass.) in a final volume of 100 μl culture medium as previously described (Matthews, T. J. et al., 1987, Proc. Natl. Acad. Sci. USA 84: 5424-5428). Peptide inhibitors were added in a volume of 10 μl and the cell mixtures were incubated for 24 hr. at 37° C. At that time, multinucleated giant cells were estimated by microscopic examination at a 40× magnification which allowed visualization of the entire well in a single field."}, "HIV-2NIHZ": {"test_system": "HIV-2NIHZ", "test": "Cell free virus infection assay (CEM CD4+ cells, reverse transcriptase readout)", "type": "cell-based", "description": "as §1, §2"}, "HIV-1IIIB": {"test_system": "HIV-1IIIB", "type": "cell-based", "conditions": "10 nM peptide", "description": "CEM cells (7×10^4) were incubated with HIV-1IIIB chronically infected CEM cells (10^4) in 96-well flat-bottomed half-area plates (Costar) in 100 μl culture medium. Peptide and fusion proteins at various concentrations in 10 μl culture medium were incubated with the cell mixtures at 37° C. for 24 hours. Multinucleated syncytia were estimated with microscopic examination."}, "Fab-d": {"test_system": "Fab-d", "test": "ELISA analysis of DP178 binding to the leucine zipper motif of gp41 (Fab-d ELISA)", "parameters": "species or system human", "conditions": "FIG. 10", "quoted_text": "Each well was washed three times with distilled water then blocked with 3% bovine serum albumin (BSA) for 2 hours. After blocking, peptides with 0.5% BSA in TBST (40 mM Tris-HCl pH7.5, 150 mM NaCl, 0.05% Tween 20) were added to the ELISA plates and incubated at room temperature for 1 hour. After washing three times with TBST, Fab-d was added at a concentration of 10 ng/ml with 0.5% BSA in TBST. The plates were washed three times with TBST after incubation at room temperature for 1 hour. Horse radish peroxidase (HRP) conjugated goat antihuman Fab antiserum at a 2000 fold dilution in TBST with 0.5% BSA was added to each well and incubated at room temperature for 45 minutes. The plates were then washed four times with TBST. The peroxidase substrate o-phenylene diamine (2.5 mg/ml) and 0.15% H2O2 were added to develop the color. The reaction was stopped with an equal volume of 4.5 N H2SO4 after incubation at room temperature for 10 minutes. The optical density of the stopped reaction mixture was measured with a micro plate reader (Molecular Design) at 490 nm."}, "HIV-1/IIIb": {"test_system": "HIV-1/IIIb", "test": "Anti-HIV assays of DP107 and DP178 truncations and mutations", "type": "cell-based", "conditions": "FIGS. 49, 50", "text": "Anti-HIV assays: The antiviral assays performed were as those described, above, in Section 6.1. Assays utilized HIV-1/IIIb and/or HIV-2 NIHZ isolates. Purified peptides were used, unless otherwise noted in FIGS. 49A-L."}, "CEM cells": {"test_system": "CEM cells", "test": "Cell proliferation and toxicity assay", "type": "cell-based", "description": "Cell proliferation and toxicity assay: Approximately 3.8×10^5 CEM cells for each peptide concentration were incubated for 3 days at 37° C. in T25 flasks. Peptides tested were DP178 (SEQ ID:1) and DP-116 (SEQ ID:9), as described in FIG. 1. Peptides were synthesized as described, above, in Section 6.1. The concentrations of each peptide used were 0, 2.5, 10, and 40 μg/ml. Cell counts were taken at incubation times of 0, 24, 48, and 72 hours."}},
  "note": "Entries after “also recorded” stand apart in the source; their conditions may differ. Read-outs that look alike come from different tables or passages of the source. Peptide text beside a SMILES is read from it.",
  "data": [
    {"compound": "CC[C@H](C)[C@H](NC(=O)[C@H](CCCNC(=N)N)NC(=O)[C@H](C)NC(=O)[C@H](CCC(N)=O)NC(=O)[C@H](CC(C)C)NC(C)=O)C(=O)N[C@@H](CC(C)C)C(=O)N[C@@H](C)C(=O)N[C@H](C(=O)N[C@@H](CCC(=O)O)C(=O)N[C@@H](CCCNC(=N)N)C(=O)N[C@@H](Cc1ccc(O)cc1)C(=O)N[C@@H](CC(C)C)C(=O)N[C@@H](CCCCN)C(=O)N[C@@H](CC(=O)O)C(=O)N[C@@H](CCC(N)=O)C(=O)N[C@@H](CCC(N)=O)C(=O)N[C@@H](CCC(N)=O)C(N)=O)C(C)C", "note": "[DP-116] (Ac-LQARILAVERYLKDQQQ-NH2)", "values": [
      {"measurement": "inhibition of HIV-1 cell free virus infection (in words)", "setting": "HIV-1LAI [1]", "value": "negative for inhibition of HIV-1 infection"},
      {"measurement": "activity in cell-free HIV-1 infection assay, previously shown (in words)", "setting": "HIV-1LAI [2]", "value": "inactive; also recorded: ineffective as a HIV inhibitor"}
    ]},
    {"compound": "DP107 (SEQ ID NO: 89), synthetic peptide corresponding to amino acids 558 to 595 of HIV-1LAI gp41", "values": [
      {"measurement": "Cell fusion (IC90)", "setting": "[3]", "value": 1000, "unit": "nM"},
      {"measurement": "HIV infectivity (IC90)", "setting": "[3]", "value": 1000, "unit": "nM"}
    ]},
    {"compound": "DP178 (SEQ ID NO:1), synthetic peptide corresponding to amino acids 638 to 673 of HIV-1LAI gp41", "values": [
      {"measurement": "Cell fusion (IC90)", "setting": "[3]", "value": 1, "unit": "nM"},
      {"measurement": "HIV infectivity (IC90)", "setting": "[3]", "value": 80, "unit": "nM"}
    ]},
    {"compound": "Enfuvirtide", "values": [
      {"measurement": "peptide concentration blocking HIV-2 mediated syncytia formation", "setting": "HIV-2", "value": "> 10", "unit": "µg/mL"},
      {"measurement": "IC50 for HIV-2NIHZ (in words)", "setting": "HIV-2NIHZ; 25 TCID50 HIV-2NIHZ, CEM cells, 7 days, FIG. 3", "value": "much higher IC50"},
      {"measurement": "potency as HIV-1 inhibitor relative to HIV-2 inhibitor", "setting": "HIV-2NIHZ; HIV-1LAI vs HIV-2NIHZ cell-free infection", "value": "two logs more potent"},
      {"measurement": "syncytia in the presence of peptide (in words)", "setting": "HIV-1IIIB", "value": "no observable syncytia"},
      {"measurement": "Fab-d binding (in words)", "setting": "Fab-d", "value": "failed to bind"},
      {"measurement": "concentration affording complete protection against syncytia formation (lowest concentration tested)", "setting": "HIV-1; HIV-1LAI, FIG. 4", "value": "≤ 12.5", "unit": "ng/mL"},
      {"measurement": "concentration affording complete protection against syncytia formation (lowest concentration tested)", "setting": "HIV-1; HIV-1MN, HIV-1RF, HIV-1SF2, FIG. 4", "value": "≤ 100", "unit": "ng/mL"},
      {"measurement": "concentration completely blocking virus induced syncytia formation (lowest effective inhibitory concentration)", "setting": "HIV-1; HIV-1 mediated cell-cell fusion", "value": "1 to 10", "unit": "ng/mL"},
      {"measurement": "selectivity as inhibitor of HIV-1-mediated over HIV-2-mediated cell fusion", "setting": "HIV-1; HIV-1 vs HIV-2", "value": 4, "unit": "log"},
      {"measurement": "peptide concentration blocking HIV-1-mediated syncytia formation", "setting": "HIV-1; HIV-1 vs HIV-2 comparison, FIG. 5", "value": "below 1 ng/ml"}
    ]},
    {"compound": "H-YTNTIYTLLEESQNQQEKNEQELLELDKWASLWNWF-OH [DP-185]", "values": [
      {"measurement": "HIV-1-mediated syncytia formation (in words)", "setting": "HIV-1", "value": "block HIV-1-mediated syncytia formation"},
      {"measurement": "concentration with inhibitory activity on HIV-1-induced syncytia formation", "setting": "HIV-1; lowest concentration tested, FIG. 4", "value": "≤ 312.5", "unit": "ng/mL"}
    ]},
    {"compound": "M41, maltose binding protein fusion with the extracellular domain of gp41 (540-686) (from UniProt P03377 540-686)", "values": [
      {"measurement": "Cell fusion (IC90)", "setting": "[3]", "value": "> 50000", "unit": "nM"},
      {"measurement": "HIV infectivity (IC90)", "setting": "[3]", "value": "> 16000", "unit": "nM"}
    ]},
    {"compound": "T-235: SEQ ID NO. 162; DP178 truncation/mutation peptide (RMKQLEDKVEELLSKLELDKWASLWNWF)", "values": [
      {"measurement": "anti-HIV antiviral activity (in words)", "setting": "HIV-1/IIIb", "value": "high level of antiviral activity"}
    ]},
    {"compound": "T-377: SEQ ID NO. 167; DP178 truncation/mutation peptide (CLELDKWASLANWFC)", "values": [
      {"measurement": "anti-HIV antiviral activity (in words)", "setting": "HIV-1/IIIb", "value": "high level of antiviral activity"}
    ]},
    {"compound": "T-378: SEQ ID NO. 168; DP178 truncation/mutation peptide (CLELDKWASLWNFFC)", "values": [
      {"measurement": "anti-HIV antiviral activity (in words)", "setting": "HIV-1/IIIb", "value": "high level of antiviral activity"}
    ]},
    {"compound": "T-381: SEQ ID NO. 164; DP178 truncation/mutation peptide (RMKQLEDKVEELLSKNYHLENELELDKWASLWNWF)", "values": [
      {"measurement": "anti-HIV antiviral activity (in words)", "setting": "HIV-1/IIIb", "value": "high level of antiviral activity"}
    ]},
    {"compound": "T-590: SEQ ID NO. 167; DP178 truncation/mutation peptide (CLELDKWASLANWFC)", "values": [
      {"measurement": "anti-HIV antiviral activity (in words)", "setting": "HIV-1/IIIb", "value": "high level of antiviral activity"}
    ]},
    {"compound": "T-591: SEQ ID NO. 168; DP178 truncation/mutation peptide (CLELDKWASLWNFFC)", "values": [
      {"measurement": "anti-HIV antiviral activity (in words)", "setting": "HIV-1/IIIb", "value": "high level of antiviral activity"}
    ]},
    {"compound": "T-611: SEQ ID NO. 175; DP178 truncation/mutation peptide (LKLDKWASLWNWF)", "values": [
      {"measurement": "anti-HIV antiviral activity (in words)", "setting": "HIV-1/IIIb", "value": "high level of antiviral activity"}
    ]},
    {"compound": "T-677: SEQ ID NO. 165; DP178 truncation/mutation peptide (FWNWLSAWKDLELYPGSLELDKWASLWNWF)", "values": [
      {"measurement": "anti-HIV antiviral activity (in words)", "setting": "HIV-1/IIIb", "value": "high level of antiviral activity"}
    ]},
    {"compound": "enfuvirtide", "values": [
      {"measurement": "non-cytotoxic concentration relative to HIV inhibitory dose", "setting": "CEM cells; 40 μg/ml vs HIV inhibitory dose", "value": "greater than 3 log"},
      {"measurement": "cytotoxic effects on cells in culture (in words)", "setting": "CEM cells; up to highest peptide concentration tested, 40 μg/ml, CEM cells, 3 days", "value": "not toxic to cells; also recorded: non-cytotoxic; also recorded: no cytotoxic effects"}
    ]}
  ]
}
